Measurements as given in the supplement of paper PMC11451515.

Tested on: SEM cells
Assay: cell viability relative to DMSO control; higher = less cytotoxic
Conditions: 48 h
Method in brief: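 NOMO1, SEM and P12-Ichikawa leukemia cells spent at least four passages adapting to each medium before use. They were seeded at 500 cells/well (NOMO1, SEM) or 1000 cells/well (P12-Ichikawa) in 5 μl in 1536-well plates and pin-dosed with library compounds in DMSO at 11 threefold steps from 47 μM down to 0.79 nM. After 48 h at 37°C, CellTiter-Glo One luminescence was read. Viability is reported as a percentage of the DMSO wells on each plate, with cell-free wells as background.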

[1] = HPLM + 10% dialyzed FBS, 0.000781 µM
[2] = HPLM + 10% dialyzed FBS, 0.00234 µM
[3] = HPLM + 10% dialyzed FBS, 0.00702 µM
[4] = HPLM + 10% dialyzed FBS, 0.0211 µM
[5] = HPLM + 10% dialyzed FBS, 0.0632 µM
[6] = HPLM + 10% dialyzed FBS, 0.19 µM
[7] = HPLM + 10% dialyzed FBS, 0.569 µM
[8] = HPLM + 10% dialyzed FBS, 1.71 µM
[9] = HPLM + 10% dialyzed FBS, 5.12 µM
[10] = HPLM + 10% dialyzed FBS, 15.4 µM
[11] = HPLM + 10% dialyzed FBS, 46.1 µM
[12] = RPMI 5 mM glucose + 10% FBS, 0.000781 µM
[13] = RPMI 5 mM glucose + 10% FBS, 0.00234 µM
[14] = RPMI 5 mM glucose + 10% FBS, 0.00702 µM
[15] = RPMI 5 mM glucose + 10% FBS, 0.0211 µM
[16] = RPMI 5 mM glucose + 10% FBS, 0.0632 µM
[17] = RPMI 5 mM glucose + 10% FBS, 0.19 µM
[18] = RPMI 5 mM glucose + 10% FBS, 0.569 µM
[19] = RPMI 5 mM glucose + 10% FBS, 1.71 µM
[20] = RPMI 5 mM glucose + 10% FBS, 5.12 µM
[21] = RPMI 5 mM glucose + 10% FBS, 15.4 µM
[22] = RPMI 5 mM glucose + 10% FBS, 46.1 µM
[23] = RPMI 5 mM glucose + 10% dialyzed FBS, 0.000781 µM
[24] = RPMI 5 mM glucose + 10% dialyzed FBS, 0.00234 µM
[25] = RPMI 5 mM glucose + 10% dialyzed FBS, 0.00702 µM
[26] = RPMI 5 mM glucose + 10% dialyzed FBS, 0.0211 µM
[27] = RPMI 5 mM glucose + 10% dialyzed FBS, 0.0632 µM
[28] = RPMI 5 mM glucose + 10% dialyzed FBS, 0.19 µM
[29] = RPMI 5 mM glucose + 10% dialyzed FBS, 0.569 µM
[30] = RPMI 5 mM glucose + 10% dialyzed FBS, 1.71 µM
[31] = RPMI 5 mM glucose + 10% dialyzed FBS, 5.12 µM
[32] = RPMI 5 mM glucose + 10% dialyzed FBS, 15.4 µM
[33] = RPMI 5 mM glucose + 10% dialyzed FBS, 46.1 µM

Compound | cell viability [1] [%] | cell viability [2] [%] | cell viability [3] [%] | cell viability [4] [%] | cell viability [5] [%] | cell viability [6] [%] | cell viability [7] [%] | cell viability [8] [%] | cell viability [9] [%] | cell viability [10] [%] | cell viability [11] [%] | cell viability [12] [%] | cell viability [13] [%] | cell viability [14] [%] | cell viability [15] [%] | cell viability [16] [%] | cell viability [17] [%] | cell viability [18] [%] | cell viability [19] [%] | cell viability [20] [%] | cell viability [21] [%] | cell viability [22] [%] | cell viability [23] [%] | cell viability [24] [%] | cell viability [25] [%] | cell viability [26] [%] | cell viability [27] [%] | cell viability [28] [%] | cell viability [29] [%] | cell viability [30] [%] | cell viability [31] [%] | cell viability [32] [%] | cell viability [33] [%]
C=CC(=O)Nc1ccc2ncnc(Nc3ccc(OCc4cccc(F)c4)c(Cl)c3)c2c1 | 75.8 | 82.7 | 83.9 | 84.4 | 103 | 91.2 | 89.7 | 101 | 77.5 | 21.2 | 18.1 | 102 | 105 | 115 | 117 | 95.3 | 110 | 118 | 116 | 76.1 | 14.6 | 12.5 | 85.5 | 87.5 | 88.4 | 92.4 | 102 | 92.4 | 93 | 107 | 77 | 19.9 | 11.1
CC1=C(/C=C/C(C)=C/C=C/C(C)=C/C(=O)O)C(C)(C)CCC1 | 111 | 114 | 116 | 129 | 133 | 123 | 137 | 145 | 122 | 115 | 102 | 118 | 116 | 139 | 123 | 120 | 123 | 121 | 155 | 124 | 113 | 101 | 112 | 107 | 128 | 99.8 | 110 | 120 | 120 | 144 | 102 | 98.3 | 84.8
Oc1ccc([C@@H]2Oc3ccc(O)cc3[C@@H]3CCC[C@@H]32)cc1 | 71.9 | 90.5 | 91.8 | 92 | 80.2 | 90.6 | 38.7 | 81.9 | 89.3 | 31.4 | 21.6 | 60.6 | 103 | 97.5 | 103 | 106 | 111 | 44.4 | 103 | 104 | 40.3 | 18.1 | 80.4 | 94.9 | 98.4 | 97 | 96.1 | 104 | 102 | 103 | 94.9 | 29 | 18.4
C[N]1C=C(C=N1)C2=CC=C3N=CC\4=C(N(C(=O)\C=C4)C5=CC6=C(CCN6C(=O)C=C)C=C5)C3=C2 | 118 | 114 | 96.1 | 120 | 93.9 | 110 | 102 | 82.1 | 27.6 | 4.07 | 4.13 | 104 | 105 | 90.4 | 110 | 117 | 111 | 118 | 80.5 | 26.6 | 2.7 | 3.13 |  |  |  |  |  |  |  |  |  |  | 
Cc1ccc([S+](=O)([O-])Nc2cc(Cl)ccc2C(=O)Nc2nc(-c3ccccc3)cs2)cc1 | 116 | 111 | 110 | 117 | 121 | 115 | 24.8 | 133 | 119 | 120 | 55.3 | 127 | 123 | 109 | 126 | 124 | 119 | 32.1 | 124 | 121 | 120 | 58.5 | 121 | 110 | 99.1 | 108 | 110 | 120 | 31.8 | 119 | 126 | 118 | 32.3
Oc1ccc(-c2ccc(-c3cc(Nc4cccc(CNC5CC5)c4)[nH]n3)cc2)c(O)c1 | 82.4 | 100 | 93.7 | 93.7 | 70.7 | 103 | 91.1 | 46.7 | 25.7 | 9.24 | 6.68 | 97.8 | 106 | 95 | 101 | 72.6 | 89.7 | 110 | 94.5 | 45.7 | 27.4 | 4.97 | 89 | 96.9 | 100 | 87.9 | 84.1 | 99.6 | 100 | 84.8 | 60.2 | 22.8 | 9.47
N#Cc1ccnc(N2C(=O)CC[C@H]2C(=O)N(c2cncc(F)c2)[C@H](C(=O)NC2CC(F)(F)C2)c2ccccc2Cl)c1 | 94.8 | 104 | 92.2 | 83.1 | 93.7 | 96.7 | 93.6 | 87.6 | 25.4 | 17.6 | 19.1 | 119 | 144 | 119 | 132 | 146 | 134 | 108 | 50.5 | 19.1 | 14.9 | 16.1 | 104 | 100 | 94.6 | 110 | 91.9 | 101 | 105 | 85.9 | 34 | 16.4 | 17.9
Cc1cnc(Nc2ccc(CN3CCOCC3)cc2)nc1Nc1cccc([S+](=O)([O-])NC(C)(C)C)c1 | 65 | 83.2 | 77.8 | 72.9 | 83.4 | 39.3 | 58 | 23.1 | 5.99 | 2.23 | 1.78 | 87.5 | 86.9 | 102 | 87.8 | 83.5 | 44 | 59.3 | 19.4 | 5.03 | 2.53 | 2.58 | 69.5 | 81.9 | 82.4 | 86 | 84.2 | 37.7 | 20.7 | 16.5 | 6.18 | 2.42 | 2.01
N=C(N)Nc1ccc(C(=O)Oc2ccc3cc(C(=N)N)ccc3c2)cc1 | 95.5 | 87.7 | 87.7 | 92.8 | 96.7 | 25.8 | 102 | 105 | 95.4 | 99.4 | 79.2 | 91.5 | 87.6 | 85.5 | 83.1 | 86.1 | 21.5 | 88.7 | 93.6 | 88.8 | 93.4 | 84 | 112 | 90.4 | 87.3 | 113 | 91.7 | 29.6 | 99.6 | 110 | 92.3 | 110 | 80.4
NNc1nncc2ccccc12 | 76.2 | 105 | 109 | 103 | 117 | 122 | 112 | 136 | 126 | 117 | 132 | 87.8 | 114 | 128 | 128 | 152 | 125 | 156 | 162 | 131 | 134 | 115 | 89.6 | 124 | 125 | 143 | 152 | 135 | 147 | 163 | 153 | 156 | 158
O=C(NCc1ccccc1)c1csc(Nc2ccncn2)n1 | 84 | 77.5 | 97 | 106 | 108 | 75.7 | 74.4 | 50.4 | 17.2 | 4.02 | 1.49 | 97.4 | 82.9 | 99.5 | 96.3 | 108 | 55.3 | 67.8 | 29.2 | 9.72 | 2.63 | 1.31 | 89.6 | 69.1 | 94.8 | 103 | 108 | 81.5 | 85.9 | 43.7 | 17.4 | 2.76 | 1.35
CN1CCN(CCCN2c3ccccc3Sc3ccc(Cl)cc32)CC1.O=C(O)/C=C\C(=O)O.O=C(O)/C=C\C(=O)O | 105 | 112 | 110 | 113 | 108 | 112 | 104 | 114 | 112 | 117 | 82.2 | 102 | 113 | 118 | 111 | 129 | 122 | 119 | 121 | 119 | 115 | 68.6 | 101 | 99.7 | 128 | 113 | 115 | 122 | 119 | 133 | 133 | 116 | 104
CN(C)CCc1c[nH]c2ccc(C[S+](=O)([O-])N3CCCC3)cc12 | 78.9 | 97.3 | 91.4 | 104 | 97.1 | 97.5 | 94 | 109 | 97.8 | 86.8 | 83.6 | 83.9 | 93.4 | 85.7 | 93.7 | 101 | 104 | 96.8 | 101 | 87.2 | 60.5 | 67.4 | 87.5 | 96 | 91.5 | 98.4 | 107 | 96.2 | 88.5 | 96.7 | 84.4 | 77.2 | 65
Cc1cccc(-c2[nH]c(C(C)(C)C)nc2-c2ccc3c(c2)OCO3)n1 | 103 | 98.7 | 114 | 105 | 104 | 120 | 113 | 121 | 109 | 10.8 | 7.86 |  |  |  |  |  |  |  |  |  |  |  | 92.1 | 96.8 | 100 | 93 | 120 | 99.7 | 107 | 121 | 111 | 10.4 | 4.24
CC(C)[N+]1(C)C2CCC1CC(OC(=O)C(CO)c1ccccc1)C2.O.[Br-] (stereo not given) | 96 | 97.8 | 107 | 91.3 | 98.7 | 108 | 93.7 | 113 | 91.4 | 69.4 | 64.5 | 111 | 103 | 106 | 96.6 | 125 | 119 | 105 | 108 | 85.9 | 40.7 | 42.3 | 93.2 | 98.2 | 109 | 109 | 120 | 116 | 123 | 130 | 90.2 | 40.3 | 41.9
NC\1=N\C(=O)N(\C=C1F)[C@H]2C[C@H](O)[C@@H](CO)O2 | 110 | 123 | 116 | 89.9 | 63.4 | 30.8 | 47.2 | 43.6 | 45.5 | 34.7 | 39.7 |  |  |  |  |  |  |  |  |  |  |  | 125 | 128 | 93 | 53.8 | 38.7 | 21.8 | 35.4 | 40.1 | 28 | 30.1 | 28.5
